The results in this text go back to patent US9315475B2 (MERCK SHARP & DOHME CORP., priority 2011, dated 2016).

One experiment deals with HIV-1 (H9IIIB strain). In words: Antiviral acute infection assay in cell culture (Spread). The following applies: Human immunodeficiency virus 1, T-lymphoid, HIV-1 H9IIIB infection of MT-4 human T-lymphoid cells in 10% FBS; mean of at least two independent experiments. Format: cell-based. The text has this: Antiviral Assays in Cell Culture (“Spread”)
Acute Infection Assay (“Spread”) data were generated using HIV-1 (H9IIIB strain) infection of MT-4 human T-lymphoid cells in 10% FBS, and according to the methods disclosed by J. P. Vacca et al, “L-735,524: An orally bioavailable human immunodeficiency virus type 1 protease inhibitor,” Proc. Natl. Acad. Sci. USA, Vol. 91, pp. 4096-4100 (April 1994).

Another experiment deals with T1, wildtype HIV-1 protease (Human immunodeficiency virus type 1 group M subtype B, UniProt P04585).
T1 construct: the wildtype HIV-1 protease (which was expressed in Escherichia coli); made in house; host or cells: Escherichia coli
Description: Assay for inhibition of microbial expressed HIV protease (Pepcleav). Conditions: wild type HIV-1 protease expressed in E. coli, peptide substrate, pH 5.5; mean of at least two independent experiments; read-out: Pepcleav. In kind it is biochemical. In outline: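 E. coli-expressed wild-type HIV-1 protease (20 pM) preincubated 30 min at room temperature with inhibitor in pH 5.5 sodium acetate/NaCl/BSA buffer, then 400 μM Val-Ser-Gln-Asn-(βnaphthyl)Ala-Pro-Ile-Val added for 1 h at 30 °C. Quenched with formic acid; product quantified by LC-MS/MS peak area, indinavir internal standard.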

pEC50, pIC50: −log10 of the molar value.

As to `N[C@H](C(=O)Nc1cncc(F)c1CC[C@@H]1CN[C@H](COC(=O)NCC(F)(F)F)CO1)[C@@H](c1ccc(F)cc1)c1ccc(F)c(F)c1` [Example 265, (βS)-3,4-difluoro-β-(4-fluorophenyl)-N-(5-fluoro-4-{2-[(2R,5S)-5-({[(2,2,2-trifluoroethyl)carbamoyl]oxy}methyl)morpholin-2-yl]ethyl}pyridin-3-yl)-L-phenylalaninamide], in the experiment on HIV-1 (H9IIIB strain), the pEC50 (as a rule, −log10 of the EC50, conventionally taken in molar units) is 7.44. Moreover, the pIC50 on wildtype HIV-1 protease is 8.51.
Turning to `N[C@H](C(=O)Nc1cncc(F)c1CC[C@@H]1CN[C@H](COC(=O)NCC(F)(F)F)CO1)[C@H](c1ccc(F)cc1)c1cccc(Cl)c1` [Example 266, (βR)-3-chloro-β-(4-fluorophenyl)-N-(5-fluoro-4-{2-[(2R,5S)-5-({[(2,2,2-trifluoroethyl)carbamoyl]oxy}methyl)morpholin-2-yl]ethyl}pyridin-3-yl)-L-phenylalaninamide], in the experiment with HIV-1 (H9IIIB strain), the pEC50 is 7.30. In addition, on wildtype HIV-1 protease, the pIC50 was 8.51.
For `N[C@H](C(=O)Nc1cncc(F)c1CC[C@@H]1CN[C@H](COC(=O)NCC(F)(F)F)CO1)[C@H](c1ccc(F)cc1)c1ccc(Cl)cc1` [Example 267, (βR)-β-(4-chlorophenyl)-4-fluoro-N-(5-fluoro-4-{2-[(2R,5S)-5-({[(2,2,2-trifluoroethyl)carbamoyl]oxy}methyl)morpholin-2-yl]ethyl}pyridin-3-yl)-L-phenylalaninamide], in that order: 7.29 and 8.51.
For `N[C@H](C(=O)Nc1cncc(F)c1CC[C@@H]1CN[C@H](COC(=O)NCC(F)(F)F)CO1)[C@@H](c1ccc(F)cc1)c1cc(F)ccc1F` [Example 268, (βS)-2,5-difluoro-β-(4-fluorophenyl)-N-(5-fluoro-4-{2-[(2R,5S)-5-({[(2,2,2-trifluoroethyl)carbamoyl]oxy}methyl)morpholin-2-yl]ethyl}pyridin-3-yl)-L-phenylalaninamide], in that order: 7.36 and 8.55.
Taken in the same sequence, the figures for `N[C@H](C(=O)Nc1cccc(F)c1CC[C@@H]1CN[C@H](COC(=O)NCC(F)(F)F)CO1)[C@H](c1ccccc1)c1ccc(F)c(F)c1` [Example 269, (βR)-β-(3,4-difluorophenyl)-N-(3-fluoro-2-{2-[(2R,5S)-5-({[(2,2,2-trifluoroethyl)carbamoyl]oxy}methyl)morpholin-2-yl]ethyl}phenyl)-L-phenylalaninamide] were 7.60 and 8.57.
`N[C@H](C(=O)Nc1cccc(F)c1CC[C@@H]1CN[C@H](COC(=O)NCC(F)(F)F)CO1)[C@H](c1ccc(F)cc1)c1ccc(F)c(F)c1` [Example 270, (βR)-β-(3,4-difluorophenyl)-4-fluoro-N-(3-fluoro-2-{2-[(2R,5S)-5-({[(2,2,2-trifluoroethyl)carbamoyl]oxy}methyl)morpholin-2-yl]ethyl}phenyl)-L-phenylalaninamide] gave a pEC50 with HIV-1 (H9IIIB strain) of 7.66. At wildtype HIV-1 protease, the pIC50 was 8.68.
For `N[C@H](C(=O)Nc1cncc(F)c1CC[C@@H]1CN[C@H](C(=O)Nc2ccccc2O)CO1)C(c1ccc(F)cc1)c1ccc(F)cc1` [Example 271, 4-fluoro-N-[5-fluoro-4-(2-{(2R,5S)-5-[(2-hydroxyphenyl)carbamoyl]morpholin-2-yl}ethyl)pyridin-3-yl]-β-(4-fluorophenyl)-L-phenylalaninamide], the pEC50 with HIV-1 (H9IIIB strain) is 6.09. For the same compound, on wildtype HIV-1 protease, the pIC50 was 8.70.
With `N[C@H](C(=O)Nc1cncc(F)c1CC[C@@H]1CN[C@H](COC(=O)NCC(F)(F)F)CO1)[C@@H](c1ccc(F)cc1)c1cccc(C(F)(F)F)c1` [Example 272, (βS)-4-fluoro-N-(5-fluoro-4-{2-[(2R,5S)-5-({[(2,2,2-trifluoroethyl)carbamoyl]oxy}methyl)morpholin-2-yl]ethyl}pyridin-3-yl)-β-[3-(trifluoromethyl)phenyl]-L-phenylalaninamide], the negative logarithm of the EC50 (pEC50) in the experiment with HIV-1 (H9IIIB strain) was 7.49. Besides, the pIC50 on wildtype HIV-1 protease was 8.70.
